# Substitutions are numbered along the chain they refer to.
# Legend:
# Assay in all cases: [3H]uridine uptake inhibition by purines in PfENT1-SNP-expressing yeast
# Type in all cases: cell-based
# [1] = target: T1, PfENT1 Q284E (Plasmodium falciparum, UniProt Q8IDM6, Q284E)
# T1 sequence (Q8IDM6 1-422 Q284E): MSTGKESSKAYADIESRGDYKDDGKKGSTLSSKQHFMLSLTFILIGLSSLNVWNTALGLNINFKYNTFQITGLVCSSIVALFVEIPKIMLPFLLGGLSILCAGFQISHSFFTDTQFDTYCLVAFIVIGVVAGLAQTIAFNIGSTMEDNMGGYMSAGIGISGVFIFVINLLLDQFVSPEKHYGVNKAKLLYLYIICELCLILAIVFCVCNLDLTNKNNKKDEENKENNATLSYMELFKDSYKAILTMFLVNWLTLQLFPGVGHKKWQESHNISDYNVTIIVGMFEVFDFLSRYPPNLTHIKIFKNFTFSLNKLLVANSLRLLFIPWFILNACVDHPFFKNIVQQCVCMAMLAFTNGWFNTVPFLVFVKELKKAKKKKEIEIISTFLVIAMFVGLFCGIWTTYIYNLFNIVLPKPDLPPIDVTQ
# [2] = target: T2, PfENT1 F36S/V129I/L133F/P417L (Quad) (Plasmodium falciparum, UniProt Q8IDM6, F36S/L133F/P417L/V129I)
# T2 sequence (Q8IDM6 1-422 F36S/V129I/L133F/P417L): T1 sequence (Q8IDM6 1-422 Q284E) with F36S, V129I, L133F, E284Q, P417L
# [3] = target: T3, PfENT1 F36S/V129I (Plasmodium falciparum, UniProt Q8IDM6, F36S/V129I)
# T3 sequence (Q8IDM6 1-422 F36S/V129I): T1 sequence (Q8IDM6 1-422 Q284E) with F36S, V129I, E284Q
# [4] = target: T4, PfENT1 L385I (Plasmodium falciparum, UniProt Q8IDM6, L385I)
# T4 sequence (Q8IDM6 1-422 L385I): T1 sequence (Q8IDM6 1-422 Q284E) with E284Q, L385I
# [5] = target: T5, PfENT1 V345I (Plasmodium falciparum, UniProt Q8IDM6, V345I)
# T5 sequence (Q8IDM6 1-422 V345I): T1 sequence (Q8IDM6 1-422 Q284E) with E284Q, V345I
# [6] = target: T6, PfENT1 F394L (Plasmodium falciparum, UniProt Q8IDM6, F394L)
# T6 sequence (Q8IDM6 1-422 F394L): T1 sequence (Q8IDM6 1-422 Q284E) with E284Q, F394L
Structure (SMILES),IC50 [1] [µM],IC50 [2] [µM],IC50 [3] [µM],IC50 [4] [µM],IC50 [5] [µM],IC50 [6] [µM]
"Nc1ncnc2nc[nH]c12 [Adenine, adenine]",1070 ± 128,362 ± 56,333 ± 32,185 ± 15,225 ± 17,1500 ± 227
"OC[C@H]1O[C@@H](n2cnc3c(O)ncnc32)[C@H](O)[C@@H]1O [Inosine, inosine]",18 ± 6,12 ± 1,14 ± 2,58 ± 17,4 ± 0.2,94 ± 29
"O=c1[nH]cnc2nc[nH]c12 [Hypoxanthine, hypoxanthine]",566 ± 133,108 ± 5,107 ± 5,173 ± 46,161 ± 57,837 ± 93

# From article PMC9218960 (ACS infectious diseases, 2020)
